Legend:
[1] = molecular target: T1, ATP-dependent translocase ABCB1 (Homo sapiens, UniProt P08183); assay: TP_TRANSPORTER: increase in Doxorubicin intracellular accumulation in MCF-7/Dox cells; assay type: functional, cell-based
[2] = molecular target: T1, ATP-dependent translocase ABCB1; assay: TP_TRANSPORTER: cell accumulation of doxorubicin in MCF-7/Dox cells; assay type: functional, cell-based

T1 sequence (P08183 whole entry): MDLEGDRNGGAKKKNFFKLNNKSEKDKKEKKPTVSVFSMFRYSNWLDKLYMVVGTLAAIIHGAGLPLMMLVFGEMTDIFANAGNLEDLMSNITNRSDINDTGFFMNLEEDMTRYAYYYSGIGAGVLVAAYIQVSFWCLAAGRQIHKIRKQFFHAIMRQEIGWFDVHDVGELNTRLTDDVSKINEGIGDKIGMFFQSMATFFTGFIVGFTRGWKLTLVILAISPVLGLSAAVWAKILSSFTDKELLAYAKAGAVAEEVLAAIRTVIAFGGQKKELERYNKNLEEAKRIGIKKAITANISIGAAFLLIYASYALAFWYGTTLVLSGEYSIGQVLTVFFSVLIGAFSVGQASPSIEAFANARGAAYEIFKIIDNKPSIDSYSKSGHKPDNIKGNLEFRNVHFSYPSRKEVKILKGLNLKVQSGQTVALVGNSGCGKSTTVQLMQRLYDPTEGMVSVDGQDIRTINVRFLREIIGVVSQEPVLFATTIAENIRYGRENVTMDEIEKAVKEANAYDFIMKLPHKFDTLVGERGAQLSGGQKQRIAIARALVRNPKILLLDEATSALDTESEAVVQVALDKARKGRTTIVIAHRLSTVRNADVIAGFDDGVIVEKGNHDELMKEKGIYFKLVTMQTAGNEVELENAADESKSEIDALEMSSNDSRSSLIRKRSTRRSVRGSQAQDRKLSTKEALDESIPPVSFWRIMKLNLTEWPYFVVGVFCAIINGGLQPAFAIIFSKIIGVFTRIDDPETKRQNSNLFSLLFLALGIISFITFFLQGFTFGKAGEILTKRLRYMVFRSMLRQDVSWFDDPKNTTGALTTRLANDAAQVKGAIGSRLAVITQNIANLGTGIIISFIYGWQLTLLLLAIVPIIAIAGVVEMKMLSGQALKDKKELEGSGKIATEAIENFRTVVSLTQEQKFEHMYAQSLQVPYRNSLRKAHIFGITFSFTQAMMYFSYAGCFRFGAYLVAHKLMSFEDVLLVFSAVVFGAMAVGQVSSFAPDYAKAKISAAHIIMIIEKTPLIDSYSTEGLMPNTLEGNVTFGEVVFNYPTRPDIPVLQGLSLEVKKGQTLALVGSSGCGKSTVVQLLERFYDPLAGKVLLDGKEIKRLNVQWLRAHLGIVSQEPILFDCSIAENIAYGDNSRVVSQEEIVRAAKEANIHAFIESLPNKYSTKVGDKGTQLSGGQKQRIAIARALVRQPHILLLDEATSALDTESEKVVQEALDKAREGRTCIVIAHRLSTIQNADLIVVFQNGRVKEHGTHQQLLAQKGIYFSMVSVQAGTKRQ

- Activity [1]: inhibitor [+]
- Activity [2]: inhibitor [+]
SMILES: COc1ccc2cc1Oc1ccc(cc1)C[C@@]1(C)c3cc(c(OC)cc3CCN1C)Oc1c(OC)c(OC)c(Br)c3c1[C@](C)(C2)N(C)CC3 [BROMOTETRANDRINE]

From ChEMBL document CHEMBL2074364, “Reversal of multidrug resistance of cancer through inhibition of P-glycoprotein by 5-bromotetrandrine” (Cancer Chemother Pharmacol, 2005)
